The source of these data is ChEMBL document CHEMBL1146458, “Five new maleic and succinic acid derivatives from the mycelium of Antrodia camphorata and their cytotoxic effects on LLC tumor cell line” (2004).

This assay is described as follows: Cytotoxicity against mouse LLC cells after 48 hrs by SRB assay. Conditions: Lewis lung carcinoma, read-out: ED50 (the source's name). Format: functional. Background: The SRB assay estimates cell density from bound dye.

In brackets after ≈: the same amount, converted by molar mass.

In the case of `CC(C)=CCOc1ccc(C2=C(CC(C)C)C(=O)N(O)C2=O)cc1`, the EC50 was determined as 7.5 µg/mL (≈ 22.8 µM). With `CC(C)=CCOc1ccc(C2=C(CC(C)C)C(=O)OC2=O)cc1`, the EC50 is > 20 µg/mL.

Take `CC(C)=CCOc1ccc([C@H]2C(=O)N(O)C(=O)[C@@H]2CC(C)C)cc1` (relative stereo): the EC50 was > 10 µg/mL. Under `COc1cccc2c1C(=O)c1c(O)c3c(c(O)c1C2=O)C[C@@](O)(C(=O)CO)C[C@@H]3O[C@H]1C[C@H](N)[C@H](O)[C@H](C)O1` [DOXORUBICIN] stands 0.14 µg/mL (≈ 0.258 µM). Under `CC(C)=CCOc1ccc(C2=C(CC(C)C)C(=O)NC2=O)cc1` stands 3.6 µg/mL (≈ 11.5 µM).
